Data reported in ChEMBL document CHEMBL1158776, “Pseudoguanolide sesquiterpene lactones from Vernoniopsis caudata and their in vitro antiplasmodial activities” (J Nat Prod, 2005).

Key:
Plasmodium falciparum = assay: Antiplasmodial activity against chloroquine-resistant Plasmodium falciparum FCB1 in human blood as [G-3H]hypoxanthine uptake; type: functional, organism-based
KB = assay: Cytotoxicity against human KB cells after 72 hrs; type: functional, cell-based

Row | SMILES | IC50 (Plasmodium falciparum) [nM] | IC50 (KB) [nM]
1 | C=C1C(=O)O[C@@H]2C[C@@H](C)[C@@H]3C=CC(=O)[C@@]3(C)[C@@H](OC(=O)C(=C)[C@@H](C)O)[C@H]12 | 1000 | 330
2 | C=C(C(=O)O[C@H]1[C@H]2[C@@H](C[C@@H](C)[C@@H]3C=CC(=O)[C@]31C)OC(=O)[C@@H]2C)[C@@H](C)O | 410 | 50
3 | C=C1C(=O)O[C@@H]2C[C@@H](C)[C@@H]3C=CC(=O)[C@@]3(C)[C@@H](OC(=O)/C(=C\C)CO)[C@H]12 | 190 | 930
4 | COc1cccc2c1C(=O)c1c(O)c3c(c(O)c1C2=O)C[C@@](O)(C(=O)CO)C[C@@H]3O[C@H]1C[C@H](N)[C@H](O)[C@H](C)O1 [DOXORUBICIN] | – | 270
